Measurements published in patent US20050004133A1, “Modulators of VR1 receptor” (priority 2003, published 2005).

Biological target: human VR1 (Homo sapiens, UniProt Q8NER1)
Settings: 50 μM capsazepine; HEK-293 clones expressing hVR1; any concentration of capsaicin

Chain of human VR1 (Q8NER1 whole entry): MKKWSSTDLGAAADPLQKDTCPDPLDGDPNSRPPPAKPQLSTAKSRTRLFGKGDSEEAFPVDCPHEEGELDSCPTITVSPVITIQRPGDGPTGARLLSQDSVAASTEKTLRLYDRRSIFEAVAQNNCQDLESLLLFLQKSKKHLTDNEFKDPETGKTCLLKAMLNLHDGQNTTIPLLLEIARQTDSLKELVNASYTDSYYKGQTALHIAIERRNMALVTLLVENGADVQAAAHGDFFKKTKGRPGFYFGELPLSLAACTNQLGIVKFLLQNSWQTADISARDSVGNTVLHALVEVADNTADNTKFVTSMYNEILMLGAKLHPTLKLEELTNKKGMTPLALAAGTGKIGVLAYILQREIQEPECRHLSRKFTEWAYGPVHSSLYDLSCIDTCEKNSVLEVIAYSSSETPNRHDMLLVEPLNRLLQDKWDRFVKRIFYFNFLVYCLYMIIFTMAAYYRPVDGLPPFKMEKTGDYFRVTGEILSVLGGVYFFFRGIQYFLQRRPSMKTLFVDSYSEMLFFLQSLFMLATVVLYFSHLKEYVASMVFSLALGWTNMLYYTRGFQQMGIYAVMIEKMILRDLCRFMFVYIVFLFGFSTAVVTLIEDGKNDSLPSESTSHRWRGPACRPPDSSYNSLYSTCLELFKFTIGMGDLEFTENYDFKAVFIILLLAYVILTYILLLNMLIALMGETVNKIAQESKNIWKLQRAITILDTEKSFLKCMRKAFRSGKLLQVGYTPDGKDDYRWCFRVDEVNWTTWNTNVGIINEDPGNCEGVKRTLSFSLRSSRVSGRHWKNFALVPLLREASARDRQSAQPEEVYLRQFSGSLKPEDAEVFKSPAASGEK

`Oc1cc2c(cc1O)CN(C(=S)NCCc1ccc(Cl)cc1)CCC2` [capsazepine] was tested, and the “response to capsaicin in the presence of capsazepine” value was “failed to respond to any concentration of capsaicin”.
